Test results as given in PubChem BioAssay AID1963841 (Molecular Pharmacology Branch, DTP, NCI, 2024).
pIC50: −log10 of the molar value.

Tested on: 439559-082-T-J2-PDC spheroid viability
Assay: Anticancer human tumor 439559-082-T-J2-PDC patient-derived colon adenocarcinoma cell line growth inhibition [POLQ]
Conditions: spheroids with HUVEC and MSC; for pIC50: curve of first compound; for viability, T/C: stronger effect = lower value
Method in brief: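 Three-cell-type spheroids modelling solid tumor plus stroma served as the readout system; POL inhibitors were tested individually and in combination, concentration ranges set by clinical Cmax where known.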
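Note: spheroids exposed to compounds for seven days before readout.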
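Throughout, for viability, T/C: 100% = DMSO vehicle control viability.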

Compound: CC(=O)O[C@H]1C(=O)[C@@]2(C)[C@H]([C@H](OC(=O)c3ccccc3)[C@]3(O)C[C@H](OC(=O)[C@H](O)[C@@H](NC(=O)c4ccccc4)c4ccccc4)C(C)=C1C3(C)C)[C@]1(OC(C)=O)CO[C@@H]1C[C@@H]2O + Cc1cccc(N(C)C(=O)C2C(O)CCN2c2nc(C)cc(C(F)(F)F)c2C#N)c1
- pIC50 (second compound 0.0316 µM): 5.66
- pIC50 (second compound 0.1 µM): 5.75
- pIC50 (second compound 0.316 µM): 5.72
- pIC50 (second compound 1 µM): 5.77
- pIC50 (second compound 3.16 µM): 5.84
- pIC50 (second compound 10 µM): 6.33
- viability, T/C (second compound 0.0316 µM, first compound 0.00949 µM): 77.2%
- viability, T/C (second compound 0.0316 µM, first compound 0.03 µM): 78.5%
- viability, T/C (second compound 0.0316 µM, first compound 0.0949 µM): 84.2%
- viability, T/C (second compound 0.0316 µM, first compound 0.3 µM): 81.3%
- viability, T/C (second compound 0.0316 µM, first compound 0.949 µM): 70.5%
- viability, T/C (second compound 0.0316 µM, first compound 3 µM): 41.5%
- viability, T/C (second compound 0.1 µM, first compound 0.00949 µM): 81.9%
- viability, T/C (second compound 0.1 µM, first compound 0.03 µM): 84.4%
- viability, T/C (second compound 0.1 µM, first compound 0.0949 µM): 77.4%
- viability, T/C (second compound 0.1 µM, first compound 0.3 µM): 72.7%
- viability, T/C (second compound 0.1 µM, first compound 0.949 µM): 66.4%
- viability, T/C (second compound 0.1 µM, first compound 3 µM): 37.8%
- viability, T/C (second compound 0.316 µM, first compound 0.00949 µM): 85.4%
- viability, T/C (second compound 0.316 µM, first compound 0.03 µM): 86.6%
- viability, T/C (second compound 0.316 µM, first compound 0.0949 µM): 78.5%
- viability, T/C (second compound 0.316 µM, first compound 0.3 µM): 74.6%
- viability, T/C (second compound 0.316 µM, first compound 0.949 µM): 61%
- viability, T/C (second compound 0.316 µM, first compound 3 µM): 42.6%
- viability, T/C (second compound 1 µM, first compound 0.00949 µM): 92%
- viability, T/C (second compound 1 µM, first compound 0.03 µM): 82%
- viability, T/C (second compound 1 µM, first compound 0.0949 µM): 79.4%
- viability, T/C (second compound 1 µM, first compound 0.3 µM): 75.2%
- viability, T/C (second compound 1 µM, first compound 0.949 µM): 65.2%
- viability, T/C (second compound 1 µM, first compound 3 µM): 36.9%
- viability, T/C (second compound 3.16 µM, first compound 0.00949 µM): 77.1%
- viability, T/C (second compound 3.16 µM, first compound 0.03 µM): 71.5%
- viability, T/C (second compound 3.16 µM, first compound 0.0949 µM): 74.1%
- viability, T/C (second compound 3.16 µM, first compound 0.3 µM): 70.4%
- viability, T/C (second compound 3.16 µM, first compound 0.949 µM): 55%
- viability, T/C (second compound 3.16 µM, first compound 3 µM): 37.4%
- viability, T/C (second compound 10 µM, first compound 0.00949 µM): 85.1%
- viability, T/C (second compound 10 µM, first compound 0.03 µM): 74.2%
- viability, T/C (second compound 10 µM, first compound 0.0949 µM): 74.4%
- viability, T/C (second compound 10 µM, first compound 0.3 µM): 51.9%
- viability, T/C (second compound 10 µM, first compound 0.949 µM): 44.4%
- viability, T/C (second compound 10 µM, first compound 3 µM): 36.8%

Compound: COc1cccc2c1C(=O)c1c(O)c3c(c(O)c1C2=O)CC(O)(C(=O)CO)CC3OC1CC(N)C(O)C(C)O1 (centres undefined) + Cc1cccc(N(C)C(=O)C2C(O)CCN2c2nc(C)cc(C(F)(F)F)c2C#N)c1
- pIC50 (second compound 0.0316 µM): < 5.00
- pIC50 (second compound 0.1 µM): < 5.00
- pIC50 (second compound 0.316 µM): < 5.00
- pIC50 (second compound 1 µM): 5.04
- pIC50 (second compound 3.16 µM): 5.01
- pIC50 (second compound 10 µM): < 5.00
- viability, T/C (second compound 0.0316 µM, first compound 0.0316 µM): 99%
- viability, T/C (second compound 0.0316 µM, first compound 0.1 µM): 87.9%
- viability, T/C (second compound 0.0316 µM, first compound 0.316 µM): 79.6%
- viability, T/C (second compound 0.0316 µM, first compound 1 µM): 70.5%
- viability, T/C (second compound 0.0316 µM, first compound 3.16 µM): 60.8%
- viability, T/C (second compound 0.0316 µM, first compound 10 µM): 53.2%
- viability, T/C (second compound 0.1 µM, first compound 0.0316 µM): 96.2%
- viability, T/C (second compound 0.1 µM, first compound 0.1 µM): 92.5%
- viability, T/C (second compound 0.1 µM, first compound 0.316 µM): 80.7%
- viability, T/C (second compound 0.1 µM, first compound 1 µM): 70.2%
- viability, T/C (second compound 0.1 µM, first compound 3.16 µM): 62.9%
- viability, T/C (second compound 0.1 µM, first compound 10 µM): 52.8%
- viability, T/C (second compound 0.316 µM, first compound 0.0316 µM): 95.2%
- viability, T/C (second compound 0.316 µM, first compound 0.1 µM): 94.4%
- viability, T/C (second compound 0.316 µM, first compound 0.316 µM): 79.4%
- viability, T/C (second compound 0.316 µM, first compound 1 µM): 68.2%
- viability, T/C (second compound 0.316 µM, first compound 3.16 µM): 63%
- viability, T/C (second compound 0.316 µM, first compound 10 µM): 51.7%
- viability, T/C (second compound 1 µM, first compound 0.0316 µM): 100%
- viability, T/C (second compound 1 µM, first compound 0.1 µM): 97.9%
- viability, T/C (second compound 1 µM, first compound 0.316 µM): 79.6%
- viability, T/C (second compound 1 µM, first compound 1 µM): 70.1%
- viability, T/C (second compound 1 µM, first compound 3.16 µM): 62.8%
- viability, T/C (second compound 1 µM, first compound 10 µM): 48.2%
- viability, T/C (second compound 3.16 µM, first compound 0.0316 µM): 96.7%
- viability, T/C (second compound 3.16 µM, first compound 0.1 µM): 86.1%
- viability, T/C (second compound 3.16 µM, first compound 0.316 µM): 81.2%
- viability, T/C (second compound 3.16 µM, first compound 1 µM): 70%
- viability, T/C (second compound 3.16 µM, first compound 3.16 µM): 56.3%
- viability, T/C (second compound 3.16 µM, first compound 10 µM): 50.6%
- viability, T/C (second compound 10 µM, first compound 0.0316 µM): 96.2%
- viability, T/C (second compound 10 µM, first compound 0.1 µM): 81.4%
- viability, T/C (second compound 10 µM, first compound 0.316 µM): 80.1%
- viability, T/C (second compound 10 µM, first compound 1 µM): 68.2%
- viability, T/C (second compound 10 µM, first compound 3.16 µM): 63.9%
- viability, T/C (second compound 10 µM, first compound 10 µM): 48.8%
